Reference: the NIST ThermoML archive (doi:10.1021/acs.jced.9b00414)
Numbers after ± are expanded uncertainties.

Details: Liquid, Ebulliometric method (Recirculating still)

## CCCCOC(=O)CCC [butyl butanoate]
438.28 K
  vapor or sublimation pressure: 101.3 ± 1.2 kPa

## O=C1CCCCC1 [cyclohexanone]
428.57 K
  vapor or sublimation pressure: 101.3 ± 1.2 kPa

## CCO [ethanol]
351.45 K
  vapor or sublimation pressure: 101.3 ± 1.2 kPa

## COC(=O)OC [dimethyl carbonate]
363.36 K
  vapor or sublimation pressure: 101.3 ± 1.2 kPa

## Cc1ccccc1C [1,2-dimethylbenzene]
417.43 K
  vapor or sublimation pressure: 101.3 ± 1.2 kPa
